The results in this text go back to patent publication US8513239B2, “Chiral cis-imidazolines” (Hoffmann-La Roche Inc., priority 2007, dated 2013).

Sequence of interaction between p53 and MDM2 proteins (Q00987 whole entry): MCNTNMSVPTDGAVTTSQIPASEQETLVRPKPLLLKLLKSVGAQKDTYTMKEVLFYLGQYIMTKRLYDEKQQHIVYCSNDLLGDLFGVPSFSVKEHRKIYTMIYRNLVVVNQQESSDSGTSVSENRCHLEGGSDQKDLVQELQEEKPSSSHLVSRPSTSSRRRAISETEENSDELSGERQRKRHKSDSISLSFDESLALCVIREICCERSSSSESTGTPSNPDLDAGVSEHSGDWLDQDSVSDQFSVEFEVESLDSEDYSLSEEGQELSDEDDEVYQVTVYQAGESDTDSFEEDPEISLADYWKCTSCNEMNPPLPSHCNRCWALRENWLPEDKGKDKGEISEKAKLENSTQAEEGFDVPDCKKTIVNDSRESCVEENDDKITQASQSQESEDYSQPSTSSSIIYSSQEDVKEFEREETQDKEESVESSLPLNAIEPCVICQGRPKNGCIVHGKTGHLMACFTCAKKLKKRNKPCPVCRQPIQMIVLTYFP

The target in this test is interaction between p53 and MDM2 proteins (Homo sapiens, UniProt Q00987). The experiment in a line: HTRF assay of inhibition of p53-MDM2 interaction (GST-MDM2 binding to biotinylated p53 peptide). Conditions: recombinant GST-tagged MDM2, biotinylated p53 peptide, 0.2% BSA. The protocol:
The ability of the compounds to inhibit the interaction between p53 and MDM2 proteins was measured by an HTRF (homogeneous time-resolved fluorescence) assay in which recombinant GST-tagged MDM2 binds to a peptide that resembles the MDM2-interacting region of p53 (Lane et al.). Binding of GST-MDM2 protein and p53-peptide (biotinylated on its N-terminal end) is registered by the FRET (fluorescence resonance energy transfer) between Europium (Eu)-labeled anti-GST antibody and streptavidin-conjugated Allophycocyanin (APC).
Test is performed in black flat-bottom 384-well plates (Costar) in a total volume of […] containing:90 nM biotinylate peptide, 160 ng/ml GST-MDM2, 20 nM streptavidin-APC (PerkinElmerWallac), 2 nM Eu-labeled anti-GST-antibody (PerkinElmerWallac), 0.2% bovine serum albumin (BSA), 1 mM dithiothreitol (DTT) and 20 mM […] (TBS) buffer as follows: Add 10 uL of GST-MDM2 (640 ng/ml working solution) in reaction buffer to each well. Add 10 uL diluted compounds (1:5 dilution in reaction buffer) to each well, mix by shaking. Add 20 uL biotinylated p53 peptide (180 nM working solution) in reaction buffer to each well and mix on shaker. Incubate at 37° C. for 1 h. Add 20 uL streptavidin-APC and Eu-anti-GST antibody mixture (6 nM Eu-anti-GST and 60 nM streptavidin-APC working solution) in TBS buffer with 0.2% BSA, shake at room temperature for 30 minutes and read using a TRF-capable plate reader at 665 and 615 nm (Victor 5, Perkin ElmerWallac). If not specified, the reagents were purchased from Sigma Chemical Co.
Background: Time-resolved FRET reads energy transfer from a long-lived donor to a nearby acceptor.
One may read the IC50 as the concentration that gives 50% inhibition. For the molecule `CCOc1nc(C(C)(C)C)ncc1C1=N[C@@](C)(c2ccc(Cl)cc2)[C@@](C)(c2ccc(Cl)cc2)N1C(=O)N1CCN(CCOCCO)CC1` [Example 22, [(4S,5R)-2-(2-tert-Butyl-4-ethoxy-pyrimidin-5-yl)-4,5-bis-(4-chloro-phenyl)-4,5-dimethyl-4,5-dihydro-imidazol-1-yl]-{4-[2-(2-hydroxy-ethoxy)-ethyl]-piperazin-1-yl}-methanone], the IC50 is 31 nM.

In the case of `CCOc1nc(C(C)(C)C)ncc1C1=N[C@@](C)(c2ccc(Cl)cc2)[C@@](C)(c2ccc(Cl)cc2)N1C(=O)N1CCN(C2CCS(=O)(=O)CC2)CC1` [Example 4, [(4S,5R)-2-(2-tert-Butyl-4-ethoxy-pyrimidin-5-yl)-4,5-bis-(4-chloro-phenyl)-4,5-dimethyl-4,5-dihydro-imidazol-1-yl]-[4-(1,1-dioxo-hexahydro-thiopyran-4-yl)-piperazin-1-yl]-methanone], the IC50 turned out to be 46 nM. Consider `CCOc1nc(C(C)(C)C)ccc1C1=N[C@@](C)(c2ccc(Cl)cc2)[C@@](C)(c2ccc(Cl)cc2)N1C(=O)N1CCN(CCCS(C)(=O)=O)CC1` (racemic) [Example 9, Rac-[(4S*,5R*)-2-(6-tert-Butyl-2-ethoxy-pyridin-3-yl)-4,5-bis-(4-chloro-phenyl)-4,5-dimethyl-4,5-dihydro-imidazol-1-yl]-[4-(3-methanesulfonyl-propyl)-piperazin-1-yl]-methanone], for which the IC50 was determined as 178 nM.

Take `CCOc1nc(C(C)(C)C)ncc1C1=N[C@@](C)(c2ccc(Cl)cc2)[C@@](C)(c2ccc(Cl)cc2)N1C(=O)N1CCN(CC(=O)N2CCOCC2)CC1` (racemic) [Example 40, Rac-2-{4-[(4S*,5R*)-2-(2-tert-Butyl-4-ethoxy-pyrimidin-5-yl)-4,5-bis-(4-chloro-phenyl)-4,5-dimethyl-4,5-dihydro-imidazole-1-carbonyl]-piperazin-1-yl}-1-morpholin-4-yl-ethanone]: the IC50 turned out to be 77 nM. With `CCOc1nc(C(C)(C)C)ncc1C1=N[C@@](C)(c2ccc(Cl)cc2)[C@@](C)(c2ccc(Cl)cc2)N1C(=O)N1CCC(N2CCCC2)CC1` (racemic) [Example 29, [2-(2-tert-Butyl-4-ethoxy-pyrimidin-5-yl)-4,5-bis-(4-chloro-phenyl)-4,5-dimethyl-4,5-dihydro-imidazol-1-yl]-(4-pyrrolidin-1-yl-piperidin-1-yl)-methanone] the figure was 252 nM.
